Measured values from ChEMBL document CHEMBL4402555, “Impact of the structure-activity relationship of AHL analogues on quorum sensing in Gram-negative bacteria” (Bioorg Med Chem, 2020).
Values belong to the compound of their own block, whether it stands above or below them.

How the values were obtained:
[1] = molecular target: T1, Transcriptional activator protein LuxR (Aliivibrio fischeri, UniProt P12746); experiment: Antagonist activity at Aliivibrio fischeri LuxR by luminescence method
T1 sequence (P12746 whole entry): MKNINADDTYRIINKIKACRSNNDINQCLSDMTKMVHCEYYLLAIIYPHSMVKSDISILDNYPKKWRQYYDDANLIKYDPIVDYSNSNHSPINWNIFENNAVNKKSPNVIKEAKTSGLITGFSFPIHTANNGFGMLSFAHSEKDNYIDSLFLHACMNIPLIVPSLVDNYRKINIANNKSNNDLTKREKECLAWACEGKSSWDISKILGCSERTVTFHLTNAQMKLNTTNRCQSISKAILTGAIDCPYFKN

[2] = Activation of LasR in Escherichia coli JLD271 harboring pSC11/pJN105L using CPRG as substrate incubated for 4 hrs by Miller assay method
[3] = molecular target: T2, Transcriptional activator protein LasR (Pseudomonas aeruginosa (strain ATCC 15692 / PAO1 / 1C / PRS 101 / LMG12228), UniProt P25084); experiment: Activation of LasR in Pseudomonas aeruginosa PAO-JP2 harboring plasI-LVAgfp incubated for 6 hrs by fluorescence method
T2 sequence (P25084 whole entry): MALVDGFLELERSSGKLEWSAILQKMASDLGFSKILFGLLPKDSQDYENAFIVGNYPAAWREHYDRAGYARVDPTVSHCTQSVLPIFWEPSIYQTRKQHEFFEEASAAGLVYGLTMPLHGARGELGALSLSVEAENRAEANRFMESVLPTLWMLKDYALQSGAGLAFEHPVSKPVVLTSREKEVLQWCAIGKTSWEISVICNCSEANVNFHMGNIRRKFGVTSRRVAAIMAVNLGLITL

[4] = molecular target: T2, Transcriptional activator protein LasR; experiment: Inhibition of LasR in Pseudomonas aeruginosa PAO-JP2 harboring plasI-LVAgfp incubated for 6 hrs by fluorescence method
[5] = Inhibition of LasR in Escherichia coli JLD271 harboring pSC11/pJN105L using CPRG as substrate incubated for 4 hrs by Miller assay method
[6] = molecular target: T1, Transcriptional activator protein LuxR; experiment: Antagonist activity at Aliivibrio fischeri ES114 LuxR after 4 to 8 hrs by luminescence method
[7] = molecular target: T3, Transcriptional activator protein LasR (Pseudomonas aeruginosa (strain ATCC 15692 / PAO1 / 1C / PRS 101 / LMG12228)) (UniProt P25084); experiment: Antagonist activity at LasR in Pseudomonas aeruginosa PAO-JP2 harboring plasI-LVAgfp assessed as inhibition of GFP expression by measuring reduction in fluorescence intensity at 100 uM incubated for 6 hrs in presence of AI1 by fluorescence based competitive assay relative to control
T3 sequence (whole entry): T2 sequence (P25084 whole entry)

[8] = molecular target: T1, Transcriptional activator protein LuxR; experiment: Inhibition of Aliivibrio fischeri LuxR by luminescence method
[9] = test system: Pseudomonas aeruginosa; experiment: Inhibition of LasI/LasR in Pseudomonas aeruginosa ATCC 9027 assessed as reduction in protein-mediated transition from microcolonies to mature biofilm at 400 uM incubated for 22 hrs by crystal violet staining assay relative to control
[10] = molecular target: T4, Regulatory protein SdiA (Escherichia coli (strain K12)) (UniProt P07026); experiment: Inhibition of sdiA in Escherichia coli K-12 assessed as reduction in protein-mediated transition from microcolonies to mature biofilm at 400 uM incubated for 22 hrs by crystal violet staining assay relative to control
T4 sequence (whole entry): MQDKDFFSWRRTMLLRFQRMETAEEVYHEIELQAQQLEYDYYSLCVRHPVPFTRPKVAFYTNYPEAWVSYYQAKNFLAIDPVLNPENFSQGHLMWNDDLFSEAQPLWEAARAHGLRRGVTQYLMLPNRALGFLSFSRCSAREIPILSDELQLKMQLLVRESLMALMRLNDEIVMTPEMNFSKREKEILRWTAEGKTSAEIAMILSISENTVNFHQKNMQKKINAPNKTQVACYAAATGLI

[11] = test system: Pseudomonas aeruginosa PAO1; experiment: Inhibition of LasI/LasR in Pseudomonas aeruginosa PAO1 assessed as reduction in swarming motility at 400 uM incubated for 18 hrs relative to control
[12] = test system: HL; experiment: Cytotoxicty against human HL cells at 100 uM after 24 hrs by CellTiter Glo assay relative to control; format: cell-based
[13] = test system: Chromobacterium violaceum; experiment: Inhibition of CviI/CviR in Chromobacterium violaceum ATCC 31532 assessed as reduction in violacein production at 40 uM incubated for 24 hrs relative to control
[14] = test system: Pseudomonas aeruginosa PAO1; experiment: Inhibition of LasI/LasR in Pseudomonas aeruginosa PAO1 assessed as reduction in protein-mediated transition from microcolonies to mature biofilm at 400 uM incubated for 22 hrs by crystal violet staining assay relative to control
[15] = test system: Pseudomonas aeruginosa; experiment: Inhibition of LasI/LasR in Pseudomonas aeruginosa ATCC 15422 assessed as reduction in protein-mediated transition from microcolonies to mature biofilm at 400 uM incubated for 22 hrs by crystal violet staining assay relative to control
[16] = test system: RAW264.7; experiment: Cytotoxicty against mouse RAW264.7 cells at 100 uM after 24 hrs by CellTiter Glo assay relative to control; format: cell-based; details: raw264.7, 24 h
[17] = Inhibition of CviI/CviR in Chromobacterium violaceum ATCC 31532 assessed as reduction in violacein production incubated for 24 hrs
[18] = Antagonist activity at LasR in Escherichia coli JLD271 harboring pSC11/ pJN105L using CPRG as substrate incubated for 4 hrs by Miller assay
[19] = molecular target: T2, Transcriptional activator protein LasR; experiment: Antagonist activity at LasR in Pseudomonas aeruginosa harboring plasI-LVAgfp assessed as inhibition of GFP production incubated for 6 hrs by fluorescence method
[20] = Inhibition of quorum sensing system in Pseudomonas aeruginosa

IC50 [1]: 9 µM
Compound: CCCCCCCS(=O)(=O)NC1CCOC1=O (stereo unspecified)

IC50 [1]: 2 to 3 µM
Compound: O=C(COCc1ccccc1)NC1CCOC1=O (stereo unspecified)

Compound: CCC(=O)CC(=O)Nc1ccccc1O
EC50 [2]: 0.096 µM | EC50 [3]: 17 µM

Compound: CCCCCCC(=O)N[C@H]1CCOC1=O
IC50 [4]: > 100 µM | IC50 [5]: 2.8 µM | IC50 [6]: 1.4 µM

IC50 [6]: 1.1 µM
Compound: O=C(Cc1ccc(-c2ccccc2)cc1)N[C@H]1CCOC1=O

Compound: O=C(CC(=O)NC1CCOC1=O)Cc1ccc(F)cc1 (stereo unspecified)
IC50 [1]: 4 µM

Compound: CCCCCCCCCC(=O)CC(=O)CCN[C@H]1CCC[C@@H]1O
inhibition [7]: 70%

IC50 [8]: 0.13 µM
Compound: CCCCCCCCCC(=O)N[C@H]1CCSC1=O

IC50 [5]: 2.8 µM
Compound: O=C(CC(=O)N[C@H]1CCOC1=O)Cc1ccccc1

inhibition [9]: 27.2% | inhibition [10]: 51.3% | inhibition [11]: 72.1% | inhibition [13]: 99.7% | inhibition [14]: 42.3% | inhibition [15]: 11.2% | IC50 [17]: 9.6 µM
Compound: CCC(=O)Oc1c(-c2ccccc2Cl)oc2ccccc2c1=O
Activity [12]: 11.2% | Activity [16]: 97.7%

Compound: CCCCCCCCCNC(=O)CC(=O)Cc1ccccc1
IC50 [18]: 2 µM | IC50 [19]: 15 µM

Compound: O=C(CC(=O)NC1CCOC1=O)Cc1cccc(Cl)c1 (stereo unspecified)
IC50 [1]: 4 µM

EC50 [2]: 33 µM | IC50 [5]: 0.49 µM
Compound: O=C(CCCOc1ccc(Cl)cc1)N[C@H]1CCOC1=O

IC50 [6]: 4.1 µM
Compound: O=C(Cc1ccc(Cl)cc1)N[C@H]1CCOC1=O

Compound: CCCCCCCCS(=O)(=O)NC1CCOC1=O (stereo unspecified)
IC50 [1]: 10 µM

Compound: N#CSCC(=O)CC(=O)N[C@H]1CCOC1=O
EC50 [2]: 0.017 µM | EC50 [3]: 2.6 µM

Compound: CCCCS(=O)(=O)NC1CCOC1=O (stereo unspecified)
IC50 [1]: 12 µM

Compound: CCC(=O)CC(=O)Nc1cccc(OC)c1
EC50 [2]: > 100 µM | IC50 [4]: > 200 µM | IC50 [5]: 4.7 µM

Compound: CCCCCCCCCC(=O)CC(=O)CCNC1CCCCC1=O (stereo unspecified)
inhibition [7]: 35%

IC50 [5]: 70 µM
Compound: O=C(Nc1ccccc1NC(=O)c1cccc(Cl)c1)c1cccc(Cl)c1

Compound: O=C1OCCC1NS(=O)(=O)CCc1ccccc1 (stereo unspecified)
IC50 [1]: 3 µM

IC50 [1]: 2 µM
Compound: O=C(CC(=O)NC1CCOC1=O)Cc1ccccc1 (stereo unspecified)

IC50 [1]: 40 µM
Compound: CCCCCCCCCS(=O)(=O)NC1CCOC1=O (stereo unspecified)

IC50 [20]: 5.5 µM
Compound: CCCCCCCCC(=O)CC(=O)Nc1ccccc1

Compound: O=C(Cc1ccc(C(F)(F)F)cc1)N[C@H]1CCOC1=O
EC50 [2]: 0.65 µM | EC50 [3]: 140 µM | IC50 [4]: 3 µM | IC50 [6]: 0.6 µM

inhibition [9]: 22.5% | inhibition [10]: 14.3% | inhibition [11]: 69.8% | inhibition [13]: 83.5% | inhibition [14]: 11.6% | inhibition [15]: 28.1% | IC50 [17]: 13.9 µM
Compound: CCCCCCCCCC(=O)Oc1c(-c2ccc(OC)cc2)oc2ccccc2c1=O

IC50 [1]: 2 to 3 µM
Compound: O=C(CSCc1ccccc1)NC1CCOC1=O (stereo unspecified)

Compound: O=C1OCCC1NS(=O)(=O)CCCc1ccccc1 (stereo unspecified)
IC50 [1]: 20 µM

IC50 [6]: 0.9 µM
Compound: O=C(Cc1ccc(I)cc1)N[C@H]1CCOC1=O

Compound: O=C(CC(=O)NC1CCOC1=O)Cc1ccc(Br)cc1 (stereo unspecified)
IC50 [1]: 2 µM

IC50 [1]: 2 µM
Compound: CCCCCS(=O)(=O)NC1CCOC1=O (stereo unspecified)
